Source: patent US20150086618A1, “PHOSPHOLIPID MICELLAR AND LIPOSOMAL COMPOSITIONS AND USES THEREOF” (THE BOARD OF TRUSTEES OF THE UNIVERSITY OF ILLINOIS, priority 2008, published 2015)
“Also recorded” adds a separate entry of the source.

How the values were obtained:
[1] = Dynamic light scattering (NICOMP) particle size of PxB, PxB with DSPE-PEG2000 and SSM in saline; type: physicochemical; conditions: for particle size distribution with scale 10-10,000 nm: 6.9 mM PxB in saline, 2 hours, 25° C.
Procedure: In order to determine the optimum peptide to lipid ratio of PxB to SSM, fluorescence spectroscopy and NICOMP analysis were carried out on PxB at varying concentrations in sterile normal saline (SNS) and with DSPE-PEG2000 at a fixed concentration. In these experiments, PxB Sulphate (MW […], Research Products International Corp, Cat: P40160-1.0, Lot#003746), DSPE-PEG2000 (MW 2811 g/mol, Lipoid, Cat#PE18:0/18:0/PEG 2000, Lot#899346-1/10), Methanol, and HEPES Buffer (pH˜7.4) were used. Controls: SSM (1 mM) and Samples: PxB-SSM (1:1000) were prepared.
Specifically, PxB (at various concentrations ranging from 0.5 mM to 6.9 mM) in sterile normal saline (SNS) was incubated with DSPE-PEG2000 (1 mM). Stock solutions of PxB and DSPE-PEG2000 were prepared and equilibrated for 2 hours. After the 2 hour equilibration, stock solutions were characterized by dynamic light scattering (DLS) using the NICOMP 380 Submicron Particle Sizer (Particle Sizing Systems, Inc. Santa Barbara, Calif.). […] A SSM sample (1 mM) (n=1) was prepared in saline alone for comparison with the PxB-SSM samples. Concurrent samples of PxB (0.5, 1.0, 2.3 and 6.9 mM) were prepared in saline alone or with SSM (DSPE-PEG2000, 1 mM) (n=8). The samples were measured for 30 minutes using DLS at approximately 2, 24, and 48 hours after time 0.

[2] = DSPE-PEG2000:PxB saturation ratio by fluorescence spectroscopy; type: physicochemical; conditions: at saturation point
Procedure: To determine the saturation point for DSPE-PEG2000 with PxB, fluorescence spectroscopy was carried out. PxB concentration was fixed at 50 μM and the concentration of DSPE-PEG2000 was varied to allow DSPE-PEG2000:PxB ratios of 1:1, 3:1, 6:1, 10:1, 20:1, 60:1, and 100:1. A stock solution of DSPE-PEG2000 was prepared and allowed to equilibrate at 25° C. in the dark under argon gas for two hours. A stock solution of PxB (100 μM) was prepared in HEPES Buffer. Samples were prepared by pipetting the appropriate amount of buffer and stock solutions into each vial. Fluorescence measurements were made after allowing each sample to equilibrate for 1 hour in the dark at 25° C. 400 μl of each sample was measured three times by the spectrofluorometer. The maximum intensity of each sample was recorded from the spectrofluorometer and analyzed using Microsoft Excel and Sigma Plot.
To fit a curve to the graph of the data the equation was used because its shape best fit the data, where
When the lipid to peptide ratio approaches infinity, a plateau is reached in terms of the fluorescence intensity and the equation becomes where yp is the height of the plateau. […]
Using this value as y, the lipid to peptide saturation point can be calculated by substituting the values into the equation and solving for x, […]

[3] = tested on: TREM-1; test: Mouse model of ALI induced by aerosolized LPS, LP17 (Example 13); type: in vivo, Wild-type mice; conditions: 3 nmol s.c.; free peptide 48 and 24 h before LPS, nanomicellar 48 h before LPS
Procedure: The efficacy of nanomicellar LP17 was tested in a mouse model of ALI induced by aerosolized LPS. Wild-type mice were treated with LP17 or control peptide and with LP17 or control peptide self-associated with nanomicelles (each, 3 nmol; a dose similar to that used in previous experiments). Free peptides were administered subcutaneously 48 and 24 h before administration of LPS. Peptides self-associated with nanomicelles were administered to the mice only 48 h before LPS nebulization. Mice were exposed to nebulized LPS in a dose of 1 mg/ml for 40 min as previously described (Sadikot et al., Am. J. Respir. Crit. Care Med. 164: 873-8, 2001.) Control mice were treated with nebulized endotoxin-free PBS. TREM-1 was induced in lungs of mice at 4 hours after treatment with LPS. After 4 h, a bronchoalveolar lavage was carried out to determine total cell count and neutrophil count. Lungs, liver, and spleen were harvested from the mice and frozen for RNA and protein extraction. Real-time RT-PCR was carried out to analyze fold induction in TREM-1 gene expression.

[4] = α-helicity of LP17 and control peptide in saline and SSM; type: physicochemical; conditions: peptide 20 μM, SSM 5 mM
Procedure: The α-helicity of LP17 (20 μM) in saline and in SSM (5 mM) was tested. A control peptide ([…] (SEQ ID NO:2)) was also tested in saline and in SSM at the same concentrations.

[5] = tested on: ALI mice; test: LPS-nebulization acute lung injury model, treatment after start of LPS (Example 7); type: in vivo; conditions: cardiac puncture at conclusion of treatment; LPS-exposed mice
Procedure: Mice are induced with acute lung injury (ALI) by treatment with lipopolysaccharide (LPS) nebulization (as described by Sadikot et al. […]: 873-8, 2001; Koay et al., Am. J. Respir. Cell Mol. Biol. 26: 572-8, 2002). […]
A dose of drug was administered subcutaneously (s.c.) 30 min after initialization of aerosolized LPS nebulization. […] All mice were sacrificed 4 hr after completion of nebulization. For each animal, bronchoalveolar lavage was carried out and the lungs were removed for analysis. Data from untreated (control) mice (no LPS nebulization or drug treatment) was also included in the data analysis for comparison.

[6] = Fluorescence anisotropy of GLP-1(7-36) in SSM / SSMM or saline; type: physicochemical; conditions: GLP-1(7-36) 125 μM in saline; n=3
From the text: Fluorescence anisotropy. […] The data indicated an increased viscosity of the peptide surrounding in the presence of SSM in contrast to saline.
This hypothesis was studied via determination of peptide fluorimetric anisotropy in the presence and absence of nanomicelles. This technique measures rigidity (or rotational freedom) of fluorophores by intensity of emitted fluorescence polarized parallel and perpendicular to that of excitation beam. A molecule that is restricted in its rotational motion due to viscous environment will emit fluorescence that is predominantly parallel to its excitation light source, giving a high anisotropy value.

[7] = Hydrophilicity/hydrophobicity balance of peptide; type: physicochemical
[8] = Blood glucose in mice with LPS-induced ALI (Example 17); type: in vivo; conditions: LPS-exposed mice, GLP-1 1250 μg/kg, cardiac puncture at conclusion
Procedure: Blood was obtained by cardiac puncture at the conclusion of the treatment. Median glucose concentration was 109, 183, 157, and 125 mg/dl, respectively.

polymyxin B [PxB]
critical micelle concentration (CMC) of PxB [1]: 1.0 to 2.3 mM | particle size (diameter), INT-WT NICOMP ([1]; 0.5 mM PxB, saline alone or with 1.0 mM DSPE-PEG2000, 24 hours): approximately 520 nm | particle size (diameter) ([1]; 1.0 mM PxB, 24 hours): 520 nm | particle size (diameter), INT-WT NICOMP ([1]; 1.0 mM PxB, saline alone or with 1.0 mM DSPE-PEG2000, 2 hours): 240 nm | large aggregates observed or not ([1]; 2.3 mM PxB): large aggregates were observed | particle size (diameter), INT-WT NICOMP ([1]; 2.3 mM PxB, saline alone or with 1 mM DSPE-PEG2000, 2 hours): approximately 850 nm | particle size distribution with scale 10-10,000 nm [1]: did not show peaks | particle size distribution with scale 10-10,000 nm ([1]; listed as PxB sulfate): no large aggregates | average particle size (diameter) ([1]; 6.9 mM PxB, 24 and 48 hour time points): 517 nm | particle size (diameter), VOL-WT NICOMP ([1]; 6.9 mM PxB, 48 hours): 4 nm | particle size (diameter), INT-WT NICOMP ([1]; 6.9 mM PxB, saline alone or with 1 mM DSPE-PEG2000, 2 hours, listed as PxB sulfate): 640 nm | particle size (diameter), INT-WT NICOMP ([1]; 6.9 mM PxB, saline alone or with 1 mM DSPE-PEG2000, 48 hours): 4 nm | particle size (diameter), INT-WT NICOMP ([1]; 6.9 mM PxB, saline alone or with 1 mM DSPE-PEG2000, 48 hours, listed as PxB sulfate): 517 nm | aggregation of PxB ([1]; all concentrations tested (0.5-6.9 mM), saline, 2-48 hours): showed aggregation of the peptide; also recorded: formed aggregates | PxB aggregate formation ([1]; range of concentrations tested, 10 μM to 23 mM): aggregates formed | molecules of PxB per micelle [2]: 3.6

LQVTDSGLYRCVIYHPP (SEQ ID NO: 1) (listed as Mus musculus) [LP17]
expression of TREM-1 mRNA [3]: attenuated | percent α-helicity in SSM compared to saline [4]: significantly greater

glucagon-like peptide I (7-36) [GLP-1]
Median blood glucose concentration [5]: 157 mg/dL | fluorescence anisotropy [6]: 0.045±0.012 | hydrophilicity/hydrophobicity balance [7]: ~0.987 | Median glucose concentration [8]: 157 mg/dL
